Measurements published in EP3156398A1, “AGONISTS OF THE CHEMOKINE RECEPTOR CXCR3” (Friedrich-Alexander-Universität Erlangen-Nürnberg, priority 2015, dated 2017).
Several values for one entry are separate records, joined by “and”; a condition that tells them apart may be missing. Identical values can stand only once. Like-named read-outs stand apart in the source and are kept apart here.

How the values were obtained:
CXCR3-PK1 = target: T1, CXCR3-PK1 (Homo sapiens, UniProt P49682); assay: β-arrestin 2 recruitment assay (PathHunter, DiscoveRx), CXCR3-PK1 construct; format: cell-based
T1 construct: expressed in transfected cells; host or cells: HEK293 cells stably expressing beta-gal enzyme acceptor (PathHunter, DiscoveRx), transiently transfected
T1 sequence (P49682 1-368): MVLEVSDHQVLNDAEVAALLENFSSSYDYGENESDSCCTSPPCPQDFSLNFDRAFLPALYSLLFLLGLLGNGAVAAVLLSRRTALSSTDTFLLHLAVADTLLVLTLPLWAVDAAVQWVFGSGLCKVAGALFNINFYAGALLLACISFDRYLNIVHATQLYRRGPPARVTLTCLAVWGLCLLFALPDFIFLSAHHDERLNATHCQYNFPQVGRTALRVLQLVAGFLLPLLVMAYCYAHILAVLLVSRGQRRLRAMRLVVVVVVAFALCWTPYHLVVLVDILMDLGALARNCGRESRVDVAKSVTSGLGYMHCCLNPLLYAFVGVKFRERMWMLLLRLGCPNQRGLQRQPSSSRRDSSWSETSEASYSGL
Experimental: (§1) β-arrestin 2 recruitment assay: The measurement of β-arrestin recruitment was performed utilizing the PathHunter assay purchased from DiscoveRx (DiscoveRx, Birmingham, U.K.) according to the manufacturer's protocol. HEK293 cells stably expressing β-gal enzyme acceptor were transiently transfected with the ProLink (PK1) tagged wildtype CXCR3 receptor using the TransIT-293 transfection reagent from Mirus (purchased from MoBiTec, Goettingen, Germany). The assay was carried out in 384-well plates containing 2000 cells in 20 µL. After incubation at 37°C (5% CO2, 95% relative humidity) overnight, various concentrations of test compounds or CXCL11 (prepared in PBS, pH 7.4, containing 0.20% BSA) were added and the incubation continued for 4 h. Detection mix was then added and incubated for further 60 min at room temperature. Chemiluminescence was determined with a microplate reader Clariostar (BMG labtech, Ortenberg, Germany).
(§2) The ability of the novel ligands according to the present invention to induce CXCR3-mediated β-arrestin 2 recruitment was investigated in the assay system PathHunter (DiscoveRx), which detects the recruitment of β-amestin 2 to the activated receptor using β-galactosidase (β-gal) enzyme fragment complementation. The inventors used two different ProLink tags, ProLink1 (PK1) and ProLink2 (PK2), of which PK2 has higher affinity for the enzyme acceptor to detect weak protein-protein interactions. The CXCR3-PK2 construct is readily able to detect the differences in the propensity of CXCL11 and CXCL10 to induce β-arrestin 2 recruitment at CXCR3. […] Table 3. Ability of the 46/VUF10661 based positive allosteric modulators to activate the CXCR3 as measured in the β-arrestin 2 recruitment assay (PathHunter, DiscoveRx).[a]

CXCR3-PK2 = target: T2, CXCR3-PK2 (Homo sapiens, UniProt P49682); assay: β-arrestin 2 recruitment assay (PathHunter, DiscoveRx), CXCR3-PK2 construct; format: cell-based; conditions: for CXCR3-PK2 pEC50 ± SEM: HEK293-T cells, PathHunter
T2 construct: expressed in transfected cells
T2 sequence (P49682 1-368): T1 sequence (P49682 1-368)
Experimental: as §1, §2
To investigate the efficacy of identified partial agonists in the assay format, the inventors used the CXCR3-PK2 construct, which is characterized by higher sensitivity to detect β-arrestin 2 recruitment. The compounds which appeared as weak partial agonists under CXCR3-PK1 conditions appeared as strong partial agonists under CXCR3-PK2 conditions with the efficacy increased up to 80% (Table 4). FAUC1036 reached the efficacy of 66%. […] Table 4. Ability of the compound 5 based positive allosteric modulators to activate the CXCR3 as measured in the β-arrestin 2 recruitment assay (PathHunter, DiscoveRx).[a]

CXCR3 = target: T3, CXCR3 (Homo sapiens, UniProt P49682); assay: [35S]GTPγS incorporation assay; format: biochemical; conditions: for CXCR3 pEC50 ± SEM: mean of three experiments in triplicate; for Emax: read-out: CXCR3 Efficacy (%) ± SEM
T3 construct: expressed in transfected cells; host or cells: HEK293 / HEK293T cells, stably transfected; membrane preparations
T3 sequence (P49682 1-368): T1 sequence (P49682 1-368)
Experimental: Membrane preparation for allosteric radioligand RAMX3 displacement and [^35S]GTPγS incorporation assays: The human embryonic kidney (HEK) cells stably expressing the human CXCR3 receptor were cultured in 150-mm cell culture plates in DMEM/F-12 supplemented with 10% fetal bovine serum (FBS), 2 mM L-glutamine, 1% penicillin-streptomycin, 300 µgmL^-1 Zeocin and incubated at 37 °C in a humid atmosphere with 5% CO2. At 100% confluency cells were washed with PBS twice, treated with Tris EDTA buffer (10 mM Tris, 0.5 mM EDTA, 5 mM KCl, 140 mM NaCl, pH 7.4), and harvested using a cell scraper. Cells were pelleted at 1100×g for 8 min at 4 °C, resuspended in Tris-EDTA-MgCl2 buffer (50mM Tris, 5 mM EDTA, 1.5 mM CaCl2, 5 mM MgCl2, 5 mM KCl, 120 mM NaCl, pH 7.4) and followed by lysis with an Ultra-Turrax. After centrifugation at 50,000•g, at 4°C for 18 min the membranes were resuspended in the binding buffer (50 mM Tris, 1 mM EDTA, 5 mM MgCl2 and subsequently homogenized with a glass-Teflon homogenizer (20 strokes). The homogenized membranes were shock-frozen in liquid nitrogen and stored at -80°C. The protein concentration was determined with the Lowry method with bovine serum albumin used as a standard.^35
[^35S]GTPγS incorporation assay: The [^35S]GTPγS incorporation assay was performed on membrane preparations of stably transfected HEK293 cells that expressed the CXCR3 receptor. The assay was carried out in 96-well plates at the final volume of 200 µL. The incubation buffer contained 20 mM HEPES, 10 mM MgCl2•6H20,100 mM NaCl and 100 mg/L saponin (pH 7.4). Membranes (30 µgmL^-1 of membrane protein), various concentrations of test compound and CXCL11, and 1 µM GDP were preincubated in the absence of [^35S]GTPγS for 30 min at 37 °C. After the addition of 0.10 nM [^35S]GTPγS membranes were incubated for additional 30 min at 37 °C. Incubation was terminated by filtration through Whatman GF/B filters soaked with ice cold PBS. The filter-bound radioactivity was measured as described above. Three to four experiments per compound were performed with each concentration in triplicate.
The activation of G proteins was explored in terms of CXCR3 mediated [^35S]GTPγS incorporation. In the [^35S]GTPγS incorporation assay the membrane preparations of HEK293T cells stably expressing CXCR3 were used. The activation of G proteins was monitored as the incorporation of [^35S]GTPγS and thus increase in the incorporated radioactivity. The potency and efficacy of the novel compounds was first compared to the reference compound 46/VUF10661. […] Table 1. The ability of the 46/VUF10661 based positive allosteric modulators to activate CXCR3 as measured in the [35S]GTPγS incorporation assay.[a]

[1] = % of CXCL11 mediated effect, CXCR3-PK1, read-out: CXCR3-PK1 efficacy (%) (converted)
[2] = HEK293-T cells, PathHunter, CXCR3-PK1, two to three experiments in triplicate
[3] = % of CXCL11 mediated effect, CXCR3-PK2, read-out: CXCR3-PK2 efficacy (%) (converted)
[4] = % of CXCL11 mediated effect, membrane preparations of HEK293T stably expressing CXCR3
[5] = membrane preparations of HEK293T stably expressing CXCR3

SMILES	Emax (CXCR3-PK1; [1])	CXCR3-PK1 pEC50 ± SEM (CXCR3-PK1; [2])	CXCR3-PK2 pEC50 ± SEM (CXCR3-PK2; CXCR3-PK2)	CXCR3 Efficacy (%) ± SEM (CXCR3; [4])	CXCR3 pEC50 ± SEM (CXCR3; [5])	Emax (CXCR3; [4])	further results
N[C@@H](CCCCNC(=O)[C@@H]1Cc2ccccc2CN1C(=O)CCCC(=O)c1ccccc1)C(=O)NCC(c1ccccc1)c1ccccc1.O=C(O)C(F)(F)F [Compound 26, (S)-1-((2,2-diphenylethyl)amino)-1-oxo-6-((S)-2-(5-oxo-5-phenylpentanoyl)-1,2,3,4-tetrahydroisoquinoline-3-carboxamido)hexan-2-aminium 2,2,2-trifluoroacetate]	20%	6.73±0.22	6.90±0.21	No effect	No effect	–	Emax (CXCR3-PK2; [3]): 91%
CC(C)(C)OC(=O)N[C@@H](CCCCNC(=O)[C@@H]1Cc2ccccc2CN1C(=O)CCCC(=O)c1ccccc1)C(=O)NCC(c1ccccc1)c1ccccc1 [Compound 24, Tert-butyl ((S)-1-((2,2-diphenylelhyl)amino)-1-oxo-6-((S)-2-(5-oxo-5-phenylpentanoyl)-1,2,3,4-tetrahydroisoquinoline-3-carboxamido)hexan-2-yl)carbamate]	–	6.84±1.7	6.78±0.35	No efffect	No effect	–	Emax (CXCR3-PK1; read-out: CXCR3-PK1 efficacy (%)): 20%; Emax (CXCR3-PK2; read-out: CXCR3-PK2 efficacy (%)): 56%
NCCCC[C@H](NC(=O)[C@@H]1Cc2ccccc2CN1C(=O)CCC(=O)c1ccccc1)C(=O)NCC(c1ccccc1)c1ccccc1.O=C(O)C(F)(F)F [Compound 46, (S)-6-((2,2-diphenylethyl)amino)-6-oxo-5-((S)-2-(4-oxo-4-phenylbutanoyl)-1,2,3,4-tetrahydroisoquinoline-3-carboxamido)hexan-1-aminium 2,2,2-trifluoroacetate, reference compound]	139%	–	–	–	–	109 ± 3%	CXCR3-PK1 pEC50 ± SEM (CXCR3-PK1; HEK293-T cells, PathHunter, CXCR3-PK1, two to three experiments in triplicate, listed as 46/VUF10661, 2,2,2-trifluoroacetate): 5.89 ± 0.07; higher efficacy than CXCL11 (CXCR3-PK1; β-arrestin 2 recruitment, relative to CXCL11): ~40%; CXCR3 pEC50 ± SEM (CXCR3; membrane preparations of HEK293T stably expressing CXCR3, listed as 46/VUF10661, 2,2,2-trifluoroacetate): 6.2 ± 0.1 and 6.20±0.06; EC50 (CXCR3; membrane preparations of HEK293T stably expressing CXCR3, read-out: EC50 / potency in [35S]GTPγS incorporation): 0.6 µM
CC(C)(C)OC(=O)N[C@@H](CCCCNC(=O)[C@@H]1Cc2ccccc2CN1C(=O)CCCc1ccccc1)C(=O)NCC(c1ccccc1)c1ccccc1 [Compound 22, Tert-butyl ((S)-1-((2,2-diphenylethyl)amino)-1-oxo-6-((S)-2-(4-phenylbutanoyl)-1,2,3,4-tetrahydroisoquinoline-3-carboxammido)hexan-2-yl)carbamate]	–	No effect	–	–	5.07±0.50	–	Emax (CXCR3): 29 ± 15%
CC(C)(C)OC(=O)N[C@@H](CCCCNC(=O)[C@@H]1Cc2ccccc2CN1C(=O)CCc1ccccc1)C(=O)NCC(c1ccccc1)c1ccccc1 [Compound 23, Tert-butyl((S)-1-((2,2-diphenylethyl)amino)-1-oxo-6-((S)-2-(3-phenylpropanoyl)-1,2,3,4-tetrahydroisoquinoline-3-carboxamido)hexan-2-yl)carbamate]	19%	7.21±0.17	6.71±0.30	–	5.07±0.50	30 ± 17%	Emax (CXCR3-PK2; [3]): 29%
COc1ccc(C(=O)CCC(=O)N2Cc3ccccc3C[C@H]2C(=O)NCCCC[C@H](NC(=O)OC(C)(C)C)C(=O)NCC(c2ccccc2)c2ccccc2)cc1OC [Compound 21, Tert-butyl ((S)-6-((S)-2-(4-(3,4-dimethoxyphenyl)-4-oxobutanoyl)-1,2,3,4-tetrahydroisoquinoline-3-carboxamido)-1-((2,2-diphenylethyl)amino)-1-oxohexan-2-yl)carbamate]	–	No effect	–	18±1%	7.30±0.17	18%	β-arrestin 2 recruitment, intrinsic agonism (result in words) (CXCR3-PK1): complete loss of intrinsic agonistic properties
CC(C)(C)OC(=O)NCCCC[C@H](NC(=O)[C@@H]1Cc2ccccc2CN1C(=O)CCC(=O)c1ccccc1)C(=O)NCC(c1ccccc1)c1ccccc1 [Compound 44, Tert-buyl ((S)-6-((2,2-diphenylethyl)amino)-6-oxo-5-((S)-2-(4-oxo-4-phenylbutanoyl)-1,2,3,4-tetrahydroisoquinoline-3-carboxamido)hexyl)carbamate]	–	–	–	–	5.88±0.10	47 ± 3%	CXCR3-PK1 efficacy (%) at 10µM (CXCR3-PK1; @10µM, % of CXCL11 mediated effect, CXCR3-PK1): 70%; EC50 (CXCR3-PK1; HEK293-T cells, PathHunter, CXCR3-PK1, two to three experiments in triplicate, read-out: CXCR3-PK1 pEC50 ± SEM (converted)): < 10 µM
CC(C)(C)OC(=O)N[C@@H](CCCCNC(=O)[C@@H]1Cc2ccccc2CN1C(=O)CCC(=O)N1CCOCC1)C(=O)NCC(c1ccccc1)c1ccccc1 [Compound 17, Tert-butyl ((S)-1-((2,2-diphenylethyl)amino)-6-((S)-2-(4-moipholino-4--oxobutanoyl)-1,2,3,4-tetrahydroisoquinoline-3-carboxamido)-1-oxohexan-2 yl)carbamate]	–	No effect	–	No effect	No effect	–	CXCR3 mediated G protein activation (result in words) (CXCR3; [35S]GTPγS incorporation): no effect
